# Measurements published in PMC6858373 (Scientific Reports, 2019).
# Structures can show the parent of a compound that is named as a salt. Where two headings read alike, the source gives them in different places.
# Legend:
# [1] = biological target: full-length P. pyralis luciferase (Photinus pyralis, UniProt P08659, K549A/L550V/N119G/N50D/S548I); type: cell-based
# [2] = biological target: T1, FGF14:Nav1.6 C-tail complex (Homo sapiens, UniProt Q92915+Q9UQD0); experiment: Split-luciferase complementation assay (LCA) in Clone V double stable HEK293 cells; type: cell-based; settings: for IC50: estimated, 8-point dose response 0.25-30 µM, n = 4 per concentration, library compounds, read-out: IC50
# T1 construct: polymerase chain reaction (PCR) amplification of the FGF14 open reading frame (nt 1–855); C-terminal fragment of Nav1.6 (amino acids 1763–1976) fused with CD4ΔC-tail (amino acids 1–395); expressed in transfected cells
# [3] = CC_NCI screening, normalized to on-plate 0.3% DMSO controls
# [4] = CC_NCI screening, biological replicate Set 1, normalized to on-plate 0.3% DMSO controls
# [5] = CC_NCI screening, biological replicate Set 1, normalized to on-plate 0.3% DMSO controls (n=16 per plate)
# [6] = CC_NCI screening, biological replicate Set 2, normalized to on-plate 0.3% DMSO controls
# [7] = CC_NCI screening, biological replicate Set 2, normalized to on-plate 0.3% DMSO controls (n=16 per plate)
# [8] = average of Set 1 and Set 2, normalized to 0.3% DMSO controls
# [9] = CC_NCI screening, full-length luciferase counter-screen luminescence, normalized to on-plate 0.3% DMSO controls
# [10] = CC_NCI screening, full-length luciferase counter-screen, normalized to on-plate 0.3% DMSO controls
# [11] = 30 µM, 384-well, average of primary screening (n = 2), vs on-plate 0.3% DMSO
# [12] = CC_NCI screening, LCA luminescence, biological replicate Set 1, normalized to on-plate 0.3% DMSO controls (n=16 per plate)
# [13] = CC_NCI screening, LCA luminescence, biological replicate Set 2, normalized to on-plate 0.3% DMSO controls (n=16 per plate)
# [14] = CC_NCI screening, LCA, biological replicate Set 1, normalized to on-plate 0.3% DMSO controls
# [15] = CC_NCI screening, LCA, biological replicate Set 2, normalized to on-plate 0.3% DMSO controls
# [16] = CC_NCI screening, average of Set 1 and Set 2, normalized to 0.3% DMSO controls
# [17] = antagonists, Clone V cells, 384-well, normalized to DMSO
# Chain of full-length P. pyralis luciferase (P08659 whole entry N50D/N119G/S548I/K549A/L550V, looked up): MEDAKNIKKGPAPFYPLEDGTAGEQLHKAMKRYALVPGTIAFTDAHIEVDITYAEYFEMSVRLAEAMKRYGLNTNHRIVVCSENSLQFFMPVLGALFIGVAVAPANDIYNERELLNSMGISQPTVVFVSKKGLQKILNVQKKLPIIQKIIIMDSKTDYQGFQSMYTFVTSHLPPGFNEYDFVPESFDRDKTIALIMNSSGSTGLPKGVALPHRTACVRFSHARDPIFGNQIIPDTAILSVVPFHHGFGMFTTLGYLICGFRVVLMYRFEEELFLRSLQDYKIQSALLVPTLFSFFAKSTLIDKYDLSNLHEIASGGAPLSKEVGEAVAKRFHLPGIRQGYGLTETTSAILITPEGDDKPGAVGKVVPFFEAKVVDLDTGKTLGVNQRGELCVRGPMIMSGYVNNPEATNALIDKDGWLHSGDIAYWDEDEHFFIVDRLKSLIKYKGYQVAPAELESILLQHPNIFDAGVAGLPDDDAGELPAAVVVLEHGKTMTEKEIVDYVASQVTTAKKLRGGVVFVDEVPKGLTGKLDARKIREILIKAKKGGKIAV
# T1 sequence (Q92915 1-252 isoform Q92915-2): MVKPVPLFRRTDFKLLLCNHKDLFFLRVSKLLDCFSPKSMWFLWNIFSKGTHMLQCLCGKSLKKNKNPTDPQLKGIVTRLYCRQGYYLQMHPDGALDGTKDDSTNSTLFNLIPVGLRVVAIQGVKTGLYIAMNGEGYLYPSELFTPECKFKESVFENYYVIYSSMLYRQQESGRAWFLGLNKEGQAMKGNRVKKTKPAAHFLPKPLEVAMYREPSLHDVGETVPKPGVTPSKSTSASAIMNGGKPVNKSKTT
# T1 sequence (Q9UQD0 1763-1976 limits assumed): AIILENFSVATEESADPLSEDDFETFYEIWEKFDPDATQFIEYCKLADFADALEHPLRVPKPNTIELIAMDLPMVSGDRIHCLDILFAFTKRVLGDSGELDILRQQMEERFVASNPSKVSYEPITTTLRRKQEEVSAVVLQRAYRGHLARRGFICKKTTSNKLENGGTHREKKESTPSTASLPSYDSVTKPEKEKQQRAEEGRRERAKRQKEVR
SMILES,Toxicity Assay Z-score (CTB cell viability) (Clone V cells),"Luciferase Assay % Lum (full-length luciferase counter-screen) [1, 3] [%]","Luciferase Assay Z-score (full-length luciferase counter-screen) [1, 3]","Split Luciferase Assay Z-score Set 1 [2, 4]","Split Luciferase Assay % Lum Set 1 [2, 5] [%]","Split Luciferase Assay %Lum Avg [2, 8] [%]","Luciferase Assay % Lum [1, 9] [%]","Luciferase Assay Z-score [1, 10]","Split Luciferase Assay % Lum Set 1 [2, 12] [%]","Split Luciferase Assay %Lum Set 2 [2, 13] [%]","Split Luciferase Assay Z-score Set 1 [2, 14]","Split Luciferase Assay Z-score Set 2 [2, 15]","Split Luciferase Assay %Lum Avg [2, 16] [%]","Toxicity Assay % Fluor (Clone V cells; human, 16 h, 30 µM) [%]","Toxicity Assay Z-score (Clone V cells; human, 16 h, 30 µM)",also measured
COc1cc2c(Nc3ccc(NC(=O)c4ccccc4)cc3)ncnc2cc1OCCCN1CCOCC1 [ZM447439],0.90,98.24,-0.23,1.70,120.99,100.03,–,–,–,–,–,–,–,–,–,"Toxicity Assay % Fluor (CTB cell viability fluorescence) (Clone V cells): 106.45%; Split Luciferase Assay Z-score Set 2 [2, 6]: -1.70; Split Luciferase Assay %Lum Set 2 [2, 7]: 79.06%"
"CN[C@@H]1C[C@H]2O[C@@](C)([C@@H]1OC)n1c3ccccc3c3c4c(c5c6ccccc6n2c5c31)C(=O)NC4 [Staurosporine, reference compound]",–,–,–,–,–,–,101.58,0.20,23.16,14.56,-6.21,-6.95,18.86,–,–,"Toxicity Assay % Fluor (Clone V cells; human): 82.83%; Toxicity Assay Z-score (Clone V cells; human): -2.40; Z-score (LCA primary screening) [2, 11]: −6.58; IMin (% Luminescence) [2, 17]: 18.86 % Luminescence"
CC(C)C[C@H](NC(=O)[C@H](Cc1ccccc1)NC(=O)c1cnccn1)B(O)O [Bortezomib],–,–,–,–,–,–,83.42,-2.12,89.47,117.56,-0.85,1.43,103.51,–,–,Toxicity Assay % Fluor (Clone V cells): 93.30%; Toxicity Assay Z-score (Clone V cells): -0.94
"C[S+]([O-])c1ccc(-c2nc(-c3ccncc3)c(-c3ccc(F)cc3)[nH]2)cc1 (centres unmarked) [SB 203580, reference compound]",–,–,–,–,–,–,–,–,–,–,–,–,–,95.56,-0.62,Luciferase Assay % Lum [1]: 80.35%; Luciferase Assay Z-score [1]: -2.52; EMax (% Luminescence) [2]: 152.42 % Luminescence; Split Luciferase Assay %Lum Avg [2]: 152.42%; Split Luciferase Assay %Lum Set 2 [2]: 166.45%; Split Luciferase Assay Z-score Set 1 [2]: 3.10; Split Luciferase Assay Z-score Set 2 [2]: 5.41; Z-score (LCA primary screening) [2]: 4.25; dose-dependent behavior in LCA [2]: mild inhibition at lower concentrations (0.5–2 µM) and stimulation at higher concentrations
Nc1nc2nc[nH]c2c(=S)[nH]1 [Thioguanine],–,–,–,–,–,–,92.95,-0.90,93.82,110.27,-0.50,0.84,102.05,96.19,-0.53,–
O=C1NC(=O)c2c1c1c3ccccc3n3c1c1c2c2ccccc2n1C1CCC3O1 [SB 218078],1.27,92.40,-0.97,-1.55,80.77,79.40,–,–,–,–,–,–,–,–,–,"Toxicity Assay % Fluor (CTB cell viability fluorescence) (Clone V cells): 109.07%; Split Luciferase Assay Z-score Set 2 [2, 6]: -1.79; Split Luciferase Assay %Lum Set 2 [2, 7]: 78.02%"
COc1cccc(-c2cc(=O)c3ccccc3o2)c1N [PD 98059],–,–,–,–,–,–,90.17,-1.26,103.60,106.11,0.29,0.50,104.86,–,–,Toxicity Assay % Fluor (Clone V cells): 88.34%; Toxicity Assay Z-score (Clone V cells): -1.63
COc1cccc2c1C(=O)c1c(O)c3c(c(O)c1C2=O)C[C@@](O)(C(=O)CO)C[C@@H]3O[C@H]1C[C@H](N)[C@H](O)[C@H](C)O1 [Doxorubicin hydrochloride],–,–,–,–,–,–,78.74,–,49.25,58.26,-4.10,-3.40,53.75,94.10,-0.82,–
O=C1NC(=O)/C(=C/c2ccc3c(c2)OC(F)(F)O3)S1 [AS-604850],2.25,62.77,-4.77,-2.78,65.55,70.75,–,–,–,–,–,–,–,–,–,"Split Luciferase Assay Z-score Set 2 [2, 6]: -1.96; Split Luciferase Assay %Lum Set 2 [2, 7]: 75.94%"
"Cc1ccc([N+](=O)[O-])cc1S(=O)(=O)N(C)/N=C/c1cnc2ccc(Br)cn12 [PIK 75, reference compound]",0.22,87.68,-1.58,-6.21,23.16,38.11,–,–,–,–,–,–,–,–,–,"Toxicity Assay % Fluor (CTB cell viability fluorescence) (Clone V cells): 101.60%; Z-score (LCA primary screening) [2, 11]: −5.01; IMin (% Luminescence) [2, 17]: 38.11 % Luminescence; IC50 [2]: 1.63 µM"
CCN(CC)CCNC(=O)c1c(C)[nH]c(/C=C2\C(=O)Nc3ccc(F)cc32)c1C [SUNITINIB],–,–,–,–,–,–,–,–,80.77,74.90,-1.55,-2.04,77.84,–,–,Toxicity Assay % Fluor (Clone V cells): 93.10%; Luciferase Assay % Lum [1]: 90.75%; Luciferase Assay Z-score [1]: -1.18
"CCCS(=O)(=O)Nc1ccc(F)c(C(=O)c2c[nH]c3ncc(Cl)cc23)c1F [PLX4720, reference compound]",–,–,–,–,–,–,–,–,–,–,–,–,–,93.90,-0.85,Luciferase Assay % Lum [1]: 79.36%; Luciferase Assay Z-score [1]: -2.64; IMin (% Luminescence) [2]: 36.71 % Luminescence; Split Luciferase Assay % Lum Set 1 [2]: 30.77%; Split Luciferase Assay %Lum Avg [2]: 36.71%; Split Luciferase Assay %Lum Set 2 [2]: 42.65%; Split Luciferase Assay Z-score Set 1 [2]: -5.60; Split Luciferase Assay Z-score Set 2 [2]: -4.67; Z-score (LCA primary screening) [2]: −5.13; IC50 [2]: 2.14 µM
Cn1cc(C2=C(c3cn(C4CCN(Cc5ccccn5)CC4)c4ccccc34)C(=O)NC2=O)c2ccccc21 [ENZASTAURIN],–,–,–,–,–,–,90.70,-1.19,84.03,96.75,-1.29,-0.26,90.39,95.12,-0.68,–
